Assay results from patent US20220211691A1, “TREATMENT OF DRY EYE DISEASE” (Aldeyra Therapeutics, Inc., priority 2021, published 2022).

Experiments:
Format in all cases: in vivo, human
[1] = system: subjects with dry eye disease; assay: CAE clinical study, initial cohort, Day 1 dry eye assessments; details: N = 12; for Schirmer's Test, Change From Baseline: Day 1, after a single dose, vehicle +1.3, P-Value 0.30; for OD4S: Dryness (0-5), Change From Baseline / OD4S: Grittiness (0-5), Change From Baseline: vehicle +0.1, P-Value 0.006; for OD4S: Discomfort (0-5), Change From Baseline / VAS Dryness (0-100), Change From Baseline: P-Value 0.003; for VAS Dryness (0-100), Change From Baseline: vehicle +2
Experimental: The objective of the study is to evaluate the efficacy of reproxalap, as assessed by tear reactive aldehyde species (RASP) levels, after single and multiple doses in subjects with dry eye disease. The efficacy of reproxalap will also be assessed by tear RASP levels, conjunctival redness, Schirmer's Test, and dry eye symptoms after dosing immediately prior to and during exposure to the Controlled Adverse Environment (CAE®) over 2 hours, in subjects with dry eye disease. CAE® chambers allow standardization of variables, such as temperature, humidity, airflow, and visual tasking (see Calonge et al., Current Eye Res., 2018, 43(4):445-450; see also Ousler, III et al., Ophthalmol Ther., 2017, 6(2): 263-276) Dosage/Dose Regimen. A Reproxalap solution (0.25% w/v or 0.1% w/v) is administered topically to both eyes. The control is a Vehicle Control Solution. The test article is administered QID on Day 1 (Visit 2). On Day 2 (Visit 3), test article is administered once 2 or 5 minutes immediately prior to the CAE®, once 45 minutes after initiation of the CAE®, and once at CAE® exit. The primary endpoint is the change in levels of reactive aldehyde species (RASP) in tears. Secondary endpoints include the following: • Visual analog scale eye dryness score assessed over 90 minutes in CAE®. • Ora Calibra Ocular Discomfort Scale assessed over 90 minutes in CAE®. • Conjunctival redness assessed at over 90 minutes via digital photography in the CAE® (Key Secondary Sign Endpoint). • Schirmer's Test assessed 10 minutes after dosing. • Post-CAE® RASP change from baseline. General Statistical Methods and Types of Analyses. The primary endpoint and secondary endpoints of Schirmer's Test and post-CAE® RASP is assessed via analysis of covariance (ANCOVA), with baseline score as a covariate. Initial Cohort of the trial will enroll twenty subject who meet the inclusion criteria. The Initial Cohort phase will be limited to Visit 1 (Screening), Visit 2 (Day 1), and Visit 3 (Day 2). At Day 1, evaluations include Dry Eye symptoms, Schirmer's test, and tear RASP levels. At Day 2 (Chamber test), evaluations include Dry Eye symptoms, Ocular Redness, and tear RASP levels. • Day 1 Schirmer's Test results is based on improvement after a single dose; all other Day 1 assessments were performed over 24 hours of QID dosing.

[2] = system: subjects with dry eye disease; assay: CAE clinical study, initial cohort, Day 2 dry eye chamber
Experimental: The objective of the study is to evaluate the efficacy of reproxalap, as assessed by tear reactive aldehyde species (RASP) levels, after single and multiple doses in subjects with dry eye disease. The efficacy of reproxalap will also be assessed by tear RASP levels, conjunctival redness, Schirmer's Test, and dry eye symptoms after dosing immediately prior to and during exposure to the Controlled Adverse Environment (CAE®) over 2 hours, in subjects with dry eye disease. CAE® chambers allow standardization of variables, such as temperature, humidity, airflow, and visual tasking (see Calonge et al., Current Eye Res., 2018, 43(4):445-450; see also Ousler, III et al., Ophthalmol Ther., 2017, 6(2): 263-276) Dosage/Dose Regimen. A Reproxalap solution (0.25% w/v or 0.1% w/v) is administered topically to both eyes. The control is a Vehicle Control Solution. The test article is administered QID on Day 1 (Visit 2). On Day 2 (Visit 3), test article is administered once 2 or 5 minutes immediately prior to the CAE®, once 45 minutes after initiation of the CAE®, and once at CAE® exit. The primary endpoint is the change in levels of reactive aldehyde species (RASP) in tears. Secondary endpoints include the following: • Visual analog scale eye dryness score assessed over 90 minutes in CAE®. • Ora Calibra Ocular Discomfort Scale assessed over 90 minutes in CAE®. • Conjunctival redness assessed at over 90 minutes via digital photography in the CAE® (Key Secondary Sign Endpoint). • Schirmer's Test assessed 10 minutes after dosing. • Post-CAE® RASP change from baseline. Secondary endpoints of conjunctival redness and symptoms in the CAE® is assessed via mixed effect model for repeated measures (MMRM), with baseline score as a covariate, and time and test article group as factors. In one of the CAE® studies, one dose is given 2 min prior to chamber entry. Another dose is administered 45 min after chamber entry. In some instances, subjects receive one day prior to chamber entry. Thus, some subjects receive: one dose on day prior to, one dose immediately before, and one dose 45 min after entry into a 90 min dry eye chamber with minimal humidity, high airflow, and forced visual tasking. In some instances, the subjects are given a dose at exit of the CAE®.

[3] = system: malondialdehyde (MDA) adducts in tears; assay: MDA adduct competitive ELISA of tears, Phase 2a clinical study; details: 28 days / 4-week treatment, all treatment groups pooled
Text: The study was to assess levels of malondialdehyde (MDA) adducts in tears collected from subjects with dry eye disease enrolled in a Phase 2a, randomized, double-masked, clinical study to assess the safety, tolerability, and pharmacodynamic activity of ADX-102 ophthalmic solution in subjects with dry eye diseases, also referred to herein as dry eye syndrome (DES).
Tears were collected during Visit 1, prior to treatment, and during Visit 3, following four weeks of treatment. Treatment groups consisted of ADX-102 Ophthalmic Solution (0.5%), ADX-102 Ophthalmic Solution (0.1%), and ADX-102 Ophthalmic Lipid Solution (0.5%). […]
The assay is a competitive ELISA. […] The plate is read in a microplate reader at 450 nm. The assay OD reading decreases with increasing MDA adducts in the samples, as the adsorbed MDA competes for binding to the MDA antibody with MDA adducts in the test sample. […]
DES Study Samples. Based on the results of the pilot assay, a 1:60 dilution was determined to maximize the likelihood of the OD values falling within the linear portion of the standard curve, and thus provide the most accurate results. All tear samples from subjects (0.5% ADX-102 Ophthalmic Solution) and (0.1% ADX-102 Ophthalmic Solution) were analyzed, but results from some tear samples were excluded from the data analysis due to contamination with ocular staining dye in the Visit 3 samples. […]

[4] = Safety of topical ocular reproxalap across clinical trials
Experimental: • Day 1 Schirmer's Test results is based on improvement after a single dose; all other Day 1 assessments were performed over 24 hours of QID dosing.

[5] = Day 1, over 24 hours of QID dosing
[6] = Day 1, over 24 hours of QID dosing, listed as reproxalap

CC(C)(O)c1nc2ccc(Cl)cc2cc1N [Reproxalap, reproxalap]
Schirmer's Test, Change From Baseline [1]: +3.4 mm
Schirmer's Test, Change From Baseline ([1]; listed as reproxalap): directionally in favor of reproxalap over vehicle
OD4S: Dryness (0-5), Change From Baseline [1, 5]: −1.2
OD4S: Grittiness (0-5), Change From Baseline [1, 5]: −1.1
OD4S: Dryness (0-5), Change From Baseline [1, 6]: statistically superior to vehicle
OD4S: Grittiness (0-5), Change From Baseline [1, 6]: statistically superior to vehicle
OD4S: Discomfort (0-5), Change From Baseline ([1]; Day 1, over 24 hours of QID dosing, vehicle +0.4): −0.7
OD4S: Discomfort (0-5), Change From Baseline ([1]; Day 1, over 24 hours of QID dosing, vehicle +0.4, listed as reproxalap): statistically superior to vehicle
Ocular Discomfort Scale (0-4), Change From Baseline ([1]; Day 1, over 24 hours of QID dosing, vehicle +0.4, P-Value 0.07): −0.7
OD4S: Sting (0-5), Change From Baseline ([1]; Day 1, over 24 hours of QID dosing, vehicle +0.4, P-Value 0.23): −0.1
OD4S: Burn (0-5), Change From Baseline ([1]; Day 1, over 24 hours of QID dosing, vehicle +0.8, P-Value 0.07): −0.1
VAS Dryness (0-100), Change From Baseline [1, 5]: −26
VAS Dryness (0-100), Change From Baseline [1, 6]: statistically superior to vehicle
ocular redness versus vehicle ([2]; Day 2, dry eye chamber, p=0.03): statistically significant improvement over vehicle
ocular discomfort score versus vehicle ([2]; Day 2, over all time points in aggregate in the dry eye chamber, p<0.0001): statistically superior to vehicle
visual analog scale (VAS) ocular dryness versus vehicle ([2]; Day 2, over all time points in aggregate in the dry eye chamber, p=0.001): statistically superior to vehicle
time to improvement in ocular symptoms and redness following dosing ([2]; dry eye chamber): within minutes
tear MDA adduct level after treatment relative to baseline, pooled groups [3]: statistically lower
most commonly reported adverse event in clinical trials ([4]; human, in vivo): mild instillation site irritation
safety in clinical trials ([4]; studied in over 1,100 patients): no observed safety concerns
